“And” between values parts separate entries of the source, which are not always exact repeats. Equal values may be shown once.
Columns and labels:
Histidine--tRNA ligase [1] = target: T1, Histidine--tRNA ligase (Trypanosoma cruzi (strain CL Brener), UniProt Q4DA54); assay: Trypanosoma cruzi histidyl tRNA synthetase (Tc-HisRS); assay type: functional
T1 sequence (Q4DA54 whole entry): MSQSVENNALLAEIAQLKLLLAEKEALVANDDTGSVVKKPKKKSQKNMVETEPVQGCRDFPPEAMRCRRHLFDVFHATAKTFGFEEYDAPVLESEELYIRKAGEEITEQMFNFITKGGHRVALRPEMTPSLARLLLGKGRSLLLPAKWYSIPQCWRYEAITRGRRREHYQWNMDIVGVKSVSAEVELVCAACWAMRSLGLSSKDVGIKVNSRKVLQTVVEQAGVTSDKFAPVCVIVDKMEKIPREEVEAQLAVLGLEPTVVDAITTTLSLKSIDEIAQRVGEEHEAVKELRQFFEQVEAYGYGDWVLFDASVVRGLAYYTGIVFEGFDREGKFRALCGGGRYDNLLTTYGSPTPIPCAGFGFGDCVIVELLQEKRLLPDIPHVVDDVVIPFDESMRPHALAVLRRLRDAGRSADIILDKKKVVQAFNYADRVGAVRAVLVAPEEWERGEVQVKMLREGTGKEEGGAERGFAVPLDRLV

Tryptophan--tRNA ligase = Tryptophan--tRNA ligase (Mycobacterium tuberculosis (strain ATCC 25618 / H37Rv), UniProt P9WFT3); assay: Biochemical assay for Mt-TrpRS; assay type: functional
Schistosoma mansoni = assay: High throughput screening of compounds against Schistosoma mansoni motility; assay type: functional; parameters: dose or concentration left out as unconfirmed
[2] = target: Chromo domain-containing protein 1 (Saccharomyces cerevisiae (strain ATCC 204508 / S288c) (Baker's yeast), UniProt P32657); assay: ScCHD-1 Enzyme Inhibition Assay; assay type: functional
[3] = target: T2, Coenzyme A biosynthesis bifunctional protein CoaBC (Mycobacterium tuberculosis (strain ATCC 25618 / H37Rv), UniProt P9WNZ1); assay: Biomol Green assay for MtCoaBC inhibitor, OD650 read; assay type: functional
T2 sequence (P9WNZ1 whole entry): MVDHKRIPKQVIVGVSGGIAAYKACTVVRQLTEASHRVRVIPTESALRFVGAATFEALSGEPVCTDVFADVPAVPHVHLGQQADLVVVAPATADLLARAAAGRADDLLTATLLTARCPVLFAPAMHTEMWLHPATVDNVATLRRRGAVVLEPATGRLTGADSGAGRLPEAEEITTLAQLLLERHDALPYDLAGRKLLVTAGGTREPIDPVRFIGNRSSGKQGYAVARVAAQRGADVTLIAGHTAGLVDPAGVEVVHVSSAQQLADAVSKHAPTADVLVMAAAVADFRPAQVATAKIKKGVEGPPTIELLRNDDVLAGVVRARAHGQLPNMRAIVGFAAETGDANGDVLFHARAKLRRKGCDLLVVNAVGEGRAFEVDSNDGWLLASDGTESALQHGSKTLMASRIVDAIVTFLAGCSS

[4] = target: Sialic acid-binding Ig-like lectin 9 (Homo sapiens, UniProt Q9Y336); assay: Hs-Siglec9 ALPHAscreen SOP 20170721
Histidine--tRNA ligase [5] = target: T3, Histidine--tRNA ligase (Leishmania infantum, UniProt A4I591); assay: Leishmania infantum Histidine tRNA synthetase (LdHisRS); assay type: functional
T3 sequence (A4I591 whole entry): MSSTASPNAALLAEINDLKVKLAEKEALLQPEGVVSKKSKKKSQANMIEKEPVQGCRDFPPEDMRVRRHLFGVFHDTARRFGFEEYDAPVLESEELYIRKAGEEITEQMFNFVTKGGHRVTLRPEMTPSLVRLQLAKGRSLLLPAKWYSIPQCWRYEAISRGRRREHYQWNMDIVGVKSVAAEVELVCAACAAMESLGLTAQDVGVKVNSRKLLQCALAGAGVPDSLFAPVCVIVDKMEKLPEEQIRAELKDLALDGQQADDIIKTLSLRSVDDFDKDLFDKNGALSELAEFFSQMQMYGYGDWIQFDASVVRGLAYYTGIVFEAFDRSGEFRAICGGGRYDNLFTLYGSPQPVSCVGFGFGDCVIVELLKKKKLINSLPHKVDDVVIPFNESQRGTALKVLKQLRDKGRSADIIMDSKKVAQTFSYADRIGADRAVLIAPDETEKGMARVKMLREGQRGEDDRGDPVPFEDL

ClpP1P2 = ClpP1P2 (Mycobacterium tuberculosis (strain ATCC 25618 / H37Rv), UniProt P9WPC3+P9WPC5); assay: in vitro assay to detect presence of AMC directly proportional to the activity of ClpP1P2. GHDDI collaboration.; assay type: functional
[6] = microbe, parasite or virus in culture; conditions: Mycobacterium tuberculosis, 96 h, read-out: pIC50 (converted)
Wolbachia pipientis = assay: Anti-Wolbachia Cell-Based Screen; assay type: functional
[7] = microbe, parasite or virus in culture; conditions: Mycobacterium tuberculosis, 72 h, read-out: pIC50 (converted)

Chromo domain-containing protein 1, sequence (P32657 whole entry, the tested form may be a part): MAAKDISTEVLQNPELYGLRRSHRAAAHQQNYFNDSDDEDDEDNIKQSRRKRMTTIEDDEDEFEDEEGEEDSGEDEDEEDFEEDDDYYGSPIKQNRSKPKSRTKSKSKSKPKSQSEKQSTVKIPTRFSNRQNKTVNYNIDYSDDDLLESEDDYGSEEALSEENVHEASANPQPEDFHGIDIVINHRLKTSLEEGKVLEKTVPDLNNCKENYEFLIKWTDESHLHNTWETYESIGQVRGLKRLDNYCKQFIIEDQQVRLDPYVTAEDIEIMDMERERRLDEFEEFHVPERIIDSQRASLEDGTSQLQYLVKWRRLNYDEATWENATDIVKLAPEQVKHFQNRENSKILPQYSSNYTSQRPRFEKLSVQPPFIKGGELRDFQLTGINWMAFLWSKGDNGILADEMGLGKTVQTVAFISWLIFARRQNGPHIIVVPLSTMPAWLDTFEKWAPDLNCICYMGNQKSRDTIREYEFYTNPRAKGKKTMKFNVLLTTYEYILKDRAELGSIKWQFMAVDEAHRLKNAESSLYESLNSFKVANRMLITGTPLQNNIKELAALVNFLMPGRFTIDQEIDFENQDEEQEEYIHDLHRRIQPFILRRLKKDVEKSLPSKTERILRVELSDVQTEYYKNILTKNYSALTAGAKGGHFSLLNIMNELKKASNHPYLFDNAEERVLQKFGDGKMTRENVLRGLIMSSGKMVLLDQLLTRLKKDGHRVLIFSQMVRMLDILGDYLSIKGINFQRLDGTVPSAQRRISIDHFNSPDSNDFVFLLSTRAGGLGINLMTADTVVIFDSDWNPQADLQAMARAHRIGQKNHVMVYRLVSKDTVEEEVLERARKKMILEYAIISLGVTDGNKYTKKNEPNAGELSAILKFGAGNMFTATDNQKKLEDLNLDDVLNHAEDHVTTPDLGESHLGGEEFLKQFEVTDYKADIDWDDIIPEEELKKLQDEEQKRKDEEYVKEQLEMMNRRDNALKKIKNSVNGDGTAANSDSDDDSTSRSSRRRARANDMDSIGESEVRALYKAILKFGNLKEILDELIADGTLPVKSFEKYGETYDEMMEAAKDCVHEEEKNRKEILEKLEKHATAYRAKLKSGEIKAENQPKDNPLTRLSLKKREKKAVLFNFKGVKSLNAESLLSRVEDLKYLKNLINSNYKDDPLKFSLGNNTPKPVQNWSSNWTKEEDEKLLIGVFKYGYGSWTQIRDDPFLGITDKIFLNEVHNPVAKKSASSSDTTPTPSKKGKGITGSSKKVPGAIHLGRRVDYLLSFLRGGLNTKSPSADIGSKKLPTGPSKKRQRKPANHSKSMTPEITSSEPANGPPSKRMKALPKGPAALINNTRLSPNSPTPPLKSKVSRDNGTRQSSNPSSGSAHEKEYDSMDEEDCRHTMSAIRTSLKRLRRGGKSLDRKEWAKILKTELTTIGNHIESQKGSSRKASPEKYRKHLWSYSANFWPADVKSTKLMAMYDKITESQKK
Tryptophan--tRNA ligase, sequence (P9WFT3 whole entry): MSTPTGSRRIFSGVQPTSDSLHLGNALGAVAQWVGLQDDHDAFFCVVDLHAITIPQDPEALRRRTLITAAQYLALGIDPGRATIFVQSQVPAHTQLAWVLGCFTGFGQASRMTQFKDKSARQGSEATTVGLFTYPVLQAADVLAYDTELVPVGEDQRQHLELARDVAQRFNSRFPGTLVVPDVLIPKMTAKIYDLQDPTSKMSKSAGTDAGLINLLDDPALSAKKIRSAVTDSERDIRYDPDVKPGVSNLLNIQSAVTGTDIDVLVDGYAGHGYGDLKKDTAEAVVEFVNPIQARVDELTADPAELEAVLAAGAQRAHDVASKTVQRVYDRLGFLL
ClpP1P2, sequence (P9WPC5 whole entry): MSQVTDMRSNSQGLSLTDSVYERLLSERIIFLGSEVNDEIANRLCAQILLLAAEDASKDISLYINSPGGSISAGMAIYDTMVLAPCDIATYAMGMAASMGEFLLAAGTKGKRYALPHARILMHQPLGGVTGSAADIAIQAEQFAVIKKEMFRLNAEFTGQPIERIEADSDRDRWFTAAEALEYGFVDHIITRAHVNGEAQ
ClpP1P2, sequence (P9WPC3 whole entry): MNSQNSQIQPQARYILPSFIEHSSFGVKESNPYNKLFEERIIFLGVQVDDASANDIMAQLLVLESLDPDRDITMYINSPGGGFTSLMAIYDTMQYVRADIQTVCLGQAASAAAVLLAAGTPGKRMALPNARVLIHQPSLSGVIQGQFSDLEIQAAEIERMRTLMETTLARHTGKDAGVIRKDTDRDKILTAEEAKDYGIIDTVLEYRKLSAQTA
Sialic acid-binding Ig-like lectin 9, sequence (Q9Y336 whole entry): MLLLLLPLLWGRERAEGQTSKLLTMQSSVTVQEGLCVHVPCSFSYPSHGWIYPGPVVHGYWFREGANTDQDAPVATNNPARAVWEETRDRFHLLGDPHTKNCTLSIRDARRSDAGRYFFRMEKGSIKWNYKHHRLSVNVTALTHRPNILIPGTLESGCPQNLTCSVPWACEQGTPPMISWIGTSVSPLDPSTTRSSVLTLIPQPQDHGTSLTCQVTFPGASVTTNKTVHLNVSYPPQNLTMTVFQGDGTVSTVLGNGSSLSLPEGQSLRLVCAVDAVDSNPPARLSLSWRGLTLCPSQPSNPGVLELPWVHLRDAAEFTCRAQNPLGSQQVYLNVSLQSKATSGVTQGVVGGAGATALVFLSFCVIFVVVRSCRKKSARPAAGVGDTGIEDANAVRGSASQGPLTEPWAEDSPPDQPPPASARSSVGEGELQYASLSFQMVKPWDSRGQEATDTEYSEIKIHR

Compound | IC50 (Histidine--tRNA ligase [1]) | Percent Effect (Schistosoma mansoni) [%] | IC50 [2] | further results
Nc1cc(-c2nccnc2N2CCCC2)c2cc[nH]c2n1 | 64.4 µM and 75.3 µM | – | – | –
CC(C)(O)CCc1cccc(C(=O)NCc2cnn3cccnc23)c1 | > 100 µM | – | – | –
CCN(CC)CCNC(=O)CCc1c(C)nn(-c2ccccc2Cl)c1C | > 100 µM | – | – | –
CN(Cc1nc2ccccc2o1)CC1CCCN1c1cccnn1 (stereo not drawn) | > 100 µM | – | – | –
O=C(CN1CCc2ccccc21)Nc1ccc(OC(F)F)cc1 | – | 42 | > 29.5 µM | IC50 (Tryptophan--tRNA ligase): > 195 µM
c1ccc(CNc2ncc(CN3CC[C@H]4CC[C@@H](C3)N4)cn2)cc1 | > 100 µM | – | – | –
Cc1nc2ccccc2nc1CN(C)CC1CCCN1c1cccnn1 (stereo not drawn) | 90.5 µM and 50.8 µM | – | – | –
CN(C)[C@H]1CCCCN(Cc2cnc(NCc3ccccc3)nc2)C1 | > 100 µM | – | – | –
Cc1nc(C)n(CC2CCCN2Cc2nc3ccccc3c(=O)[nH]2)n1 (stereo not drawn) | > 100 µM | – | – | –
Cc1cc(CNC2CCCN(c3cccnn3)C2)no1 (stereo not drawn) | > 100 µM | – | – | –
O=C1CC(c2ccco2)c2sc(C(=O)O)c(-c3ccccc3)c2N1 (stereo not drawn) | – | – | 20.8 µM and 21.6 µM | IC50 [3]: > 30.2 µM; IC50 [4]: > 30.2 µM; IC50 (Histidine--tRNA ligase [5]): 17.3 µM and 12.6 µM; IC50 (ClpP1P2): > 100 µM
COc1ncccc1C(=O)Nc1nc2c(s1)CN(S(=O)(=O)C1CC1)CC2 | – | -71.23 | > 29.5 µM | –
CCOc1ncccc1NC(=O)c1cc2c(s1)CCC2 | – | -62.61 | > 29.5 µM | –
CSCCC(=O)N1CCCC1c1ccsc1 (stereo not drawn) | – | -17.9 | > 29.5 µM | IC50 (Tryptophan--tRNA ligase): > 195 µM
CC(=O)NCCc1ccc(S(=O)(=O)N(CC(C)C)C(C)C)s1 | – | 41.16 | > 29.5 µM | –
Cc1nc(CN(C)CC2CCCN2c2cccnn2)oc1C (stereo not drawn) | > 100 µM | – | – | –
Cc1ccc(N2CCCC3(COCCN(c4ccccn4)C3)C2)nn1 (stereo not drawn) | > 100 µM | – | – | –
COC(=O)c1ccc2ccn(CC3CCCO3)c(=O)c2c1 (stereo not drawn) | – | -62.88 | > 29.5 µM | –
O=C(NS(=O)(=O)c1ccccc1Cl)c1cccc2c1OCCO2 | – | -35.61 | > 29.5 µM | –
COc1ccc(C)cc1S(=O)(=O)NCC(c1cccn1C)N(C)C (stereo not drawn) | – | -44.63 | > 29.5 µM | –

Compound | IC50 (Histidine--tRNA ligase [1]) | Percent Effect (Schistosoma mansoni) [%] | IC50 [2] | further results
COCCN1CCC2(CCN(c3ncccn3)CC2)C1=O | > 100 µM | – | – | –
Cc1nc(C)n(CC2CCCN2Cc2nc(N)c3ccccc3n2)n1 (stereo not drawn) | > 100 µM | – | – | –
Cc1nc(C)n(CC2CCCN2Cc2nc3ccccc3o2)n1 (stereo not drawn) | > 100 µM | – | – | –
CC(C)(O)CCc1cccc(C(=O)NCc2nccs2)c1 | > 100 µM | – | – | –
Cc1cnc(CNc2c(F)cccc2-n2cccn2)o1 | – | -41.52 | > 29.5 µM | –
Cc1ccccc1CC(C)NCc1c(C)nn(C)c1N1CCOCC1.Cl (stereo not drawn) | – | 7.535 | > 29.5 µM | –
CN(Cc1nc(N)c2ccccc2n1)CC1CCCN1c1cccnn1 (stereo not drawn) | > 100 µM | – | – | –
Cc1nc(CNC2CCCN(c3cccnn3)C2)no1 (stereo not drawn) | > 100 µM | – | – | –
CCCn1cc(NC(=O)c2ccc(N(C)CC)cc2)ccc1=O | > 100 µM | – | – | –
Cc1noc([C@@H]2CCCN2C(=O)C2CCN(C(=O)C3CCC3)CC2)n1 | – | 8.394 | > 29.5 µM | –
O=C(O)c1cncc(Cc2cccc(F)c2)c1 | > 100 µM | – | – | –
Cc1ccc(N2CCCC3(COCCN(c4ncccn4)C3)C2)nn1 (stereo not drawn) | > 100 µM | – | – | –
c1cncc(-c2noc(CNC3CCCN(c4cccnn4)C3)n2)c1 (stereo not drawn) | > 100 µM | – | – | –
COc1ccc(C[C@H]2CN(c3nnc(C)s3)CC[C@@H]2OC)cc1.O=C(O)C(F)(F)F | – | – | > 29.5 µM | IC50 [6]: 24.7 µM; pIC50 (Wolbachia pipientis): 5.531; IC50 (Wolbachia pipientis; Wolbachia pipientis): 3.58 µM; IC50 [7]: > 50.1 µM
CN1CCN2CCN(Cc3cnc(NCc4ccccc4)nc3)CC2C1 (stereo not drawn) | > 100 µM | – | – | –
CCN1CCC2(CCN(c3ncccn3)CC2)C1=O | > 100 µM | – | – | –
CC(NC(=O)CCCOc1ccccc1Cl)c1ccncc1 (stereo not drawn) | – | -74.47 | > 29.5 µM | –
CC(C)NC(=O)c1nnn(-c2cccc(C(F)(F)F)c2)c1C1CC1 | – | -32.68 | > 29.5 µM | –
Cc1nc2ccccc2nc1CN(C)C1CCCN(c2cccnn2)C1 (stereo not drawn) | > 100 µM | – | – | –
CCN(CC)CCNC(=O)CCc1c(C)nn(-c2ccccc2Br)c1C | > 100 µM | – | – | –
